Source: PubChem BioAssay (NCI)
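Cells were grown in 96-well plates and exposed to each compound for 48 hours at five concentrations; endpoints were interpolated linearly between bracketing concentrations, or set to the highest concentration if not reached. At the GI50, growth is halved. Definition used: TGI = concentration required for complete inhibition of growth.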

Experiments:
Experiment in all cases: NCI tumour cell line growth inhibition, 48 h
SNB-19 CNS = system: SNB-19 CNS
HOP-62 NSCLC = system: HOP-62 NSCLC
MDA-MB-231 breast = system: MDA-MB-231 breast
SK-MEL-5 melanoma = system: SK-MEL-5 melanoma
A498 renal = system: A498 renal
BT-549 breast = system: BT-549 breast
SR leukemia = system: SR leukemia
DU-145 prostate = system: DU-145 prostate
MCF7 breast = system: MCF7 breast
OVCAR-3 ovarian = system: OVCAR-3 ovarian

Structure (SMILES) | GI50 (SNB-19 CNS) [µM] | TGI (SNB-19 CNS) [µM] | GI50 (HOP-62 NSCLC) [µM] | TGI (HOP-62 NSCLC) [µM] | GI50 (MDA-MB-231 breast) [µM] | TGI (MDA-MB-231 breast) [µM] | GI50 (SK-MEL-5 melanoma) [µM] | TGI (SK-MEL-5 melanoma) [µM] | GI50 (A498 renal) [µM] | TGI (A498 renal) [µM] | GI50 (BT-549 breast) [µM] | TGI (BT-549 breast) [µM] | GI50 (SR leukemia) [µM] | TGI (SR leukemia) [µM] | GI50 (DU-145 prostate) [µM] | TGI (DU-145 prostate) [µM] | GI50 (MCF7 breast) [µM] | TGI (MCF7 breast) [µM] | GI50 (OVCAR-3 ovarian) [µM] | TGI (OVCAR-3 ovarian) [µM]
O=C(Nc1cccc(-n2cc(-c3ccncc3)c(-c3ccc(O)c(Cl)c3)n2)c1)c1ccc2c(c1)OCCO2 | > 100 | > 100 | > 100 | > 100 | 2.92 | > 100 | 3.95 | > 100 | > 100 | > 100 | 4.92 | > 100 | 2.46 | > 100 | > 100 | > 100 | 4.24 | > 100 |  | 
Cc1cc(C(=O)Nc2n[nH]c3ccccc23)n[nH]1 | > 100 | > 100 | > 100 | > 100 | > 100 | > 100 | > 100 | > 100 | > 100 | > 100 | > 100 | > 100 | 80.6 | > 100 | > 100 | > 100 | > 100 | > 100 | > 100 | > 100
COc1cccc(-c2nn(-c3ccccc3)cc2-c2ccnc(NCCCNC(=O)c3cccc(C(F)(F)F)c3)c2)c1 | 6.03 | 31.2 | 10.3 | 30.6 | 3.86 | 25.7 | 1.54 | 3.34 |  |  | 2.84 | 9 | 2.1 | 8.02 | 8.72 | 66.3 | 3.54 | 18.5 | 4.52 | 19.7
CCCOc1cc2ccccc2cc1C(=O)Nc1nc(NC)c2c(ccc3nccc32)[nH]1 | 0.701 | 2.23 | 0.779 | 2.28 | 1.34 | 2.87 | 0.994 | 2.2 | 0.359 | 1.75 | 1.45 | 3.02 |  |  | 0.345 | 1.23 | 0.263 | 1.31 | 0.248 | 1.13
C[C@]12CC[C@@H]3c4ccc(O)cc4CC[C@H]3[C@@H]1CC[C@@H]2NS(=O)(=O)c1ccc(Br)cc1 | 3.94 | 16.9 | 2.77 | 6.14 | 2.01 | 4.62 | 1.76 | 3.22 | 1.61 | 3.7 | 2.27 | 4.72 | 3.37 | 39.3 | 3.91 | 12.7 | 2.26 | 4.64 | 2.18 | 4.43
O=C(O)c1cc2ccccc2c2c3c(ccc12)OCO3 | 152 | 849 | 176 | 697 | 165 | > 1000 | 133 | 281 | 125 | 324 | 119 | 390 | 136 | 507 | 303 | > 1000 | 227 | 895 | 183 | 468
NCCCOc1cc2ccccc2cc1C(=O)Nc1ccc(Cl)cc1OC(=O)c1cc2ccccc2cc1OCCCN | 0.766 | 2.19 | 0.208 | 0.515 | 0.596 | 1.99 | 1.23 | 2.49 | 1.53 | 2.92 | 1.66 | 3.1 | 0.257 | 1.48 | 0.303 | 0.781 | 0.173 | 0.332 | 0.612 | 1.43
Nc1nonc1-c1nc2ccccc2n1Cc1ccc(F)cc1 | 14.6 | > 100 | 14.6 | > 100 | 6.84 | > 100 |  |  | 2.2 | > 100 | 9.8 | > 100 | 4.89 | > 100 | > 100 | > 100 | 3.78 | > 100 | 5.8 | > 100
O=[N+]([O-])c1cccc(-c2nc(-c3ccc(Cl)cc3Cl)cn2-c2ccccc2)c1 | 2.55 | > 18.2 | 1.39 | 7.56 | 1.93 | > 20.5 | 6.78 | > 33.3 |  | > 9.06 | 0.0695 | > 22.1 | 1.24 | > 33.3 | 0.574 | 1.19 | 0.909 | 4.02 | 0.458 | 0.945
O=S(=O)(NCCNc1nccc(-c2c(-c3ccc(F)c(O)c3)nc3sccn23)n1)c1ccc(Cl)cc1 | 3.35 | 11.3 | 6.17 | 21.5 | 2.98 | 24.1 |  |  | 1.63 | 11.7 | 1.65 | 14 | 1.87 | > 50 | 2.9 | > 50 | 1.52 | > 50 | 2.56 | 14.9
COc1cc(Cl)cc(-c2nn(-c3cccc(NC(=O)Nc4cccc(C(F)(F)F)c4)c3)cc2-c2ccncc2)c1 | 2.77 | 35.9 | 2.81 | 13.1 | 1.59 | 4.91 | 1.48 | 2.84 | 2.25 | 25.6 | 2.22 | 5.6 | 1.14 | 4.39 | 2.61 | > 100 | 1.48 | 7.57 | 0.592 | 4.62
CNCC/C=C1\c2cc3c(cc2-c2c1c1cc(OC)c(OC)cc1c(=O)n2C)OCO3 | 1.08 | 23.1 | 0.596 | 21.9 | 1.78 | 13.6 | 0.548 | 2.89 | 2.97 | 12 | 3.66 | 22.5 | < 0.01 |  | 0.428 | 8.84 | 0.161 | > 36.9 | 1.04 | 17.9
